The test system of one data set is HEK 293T cells. As to the kind of experiment: cells. In kind it is cell-based, human. The settings on record: read-out: HEK (IC50 μM).
In a further data set the test system is T. b. brucei. As to the kind of experiment: microbe, parasite or virus in culture. In kind it is cell-based, T. b. brucei (strain Lister 427). The method, then:
Cells were routinely diluted when reaching the mid-log-phase concentration of 2 × 10^6 cells/mL and maintained in culture for no more than 30 passages.
Compounds’ potency against trypanosomes was assessed by Alamar blue assay.[31] Cells were seeded at a final concentration of 2 × 10^4 cells/mL into serial dilutions of the test compound. After 48 h incubation at 37 °C and 5% CO2, 20 μL of resazurin dye (Sigma-Aldrich) solution at 0.49 mM was added, and cells were incubated for a further 24 h. The reduction of resazurin was measured with a fluorimeter (FLUOstar Optima, BMG Labtech) using 544 nm excitation and 590 nm emission wavelengths. Output was plotted using the IC50 determination algorithm of the GraphPad Prism 5.0 software. All experiments were carried out in duplicate and repeated on at least three independent occasions.

Data set [1] in a line: Plasma binding (fraction unbound). It counts as in vitro ADME. The settings on record: mouse; fraction unbound by plasma; read-out: plasma bind fu.
The nature of data set [2]: Metabolic stability in microsomal assay (t1/2). In kind it is in vitro ADME. The settings on record: microsomes.
The next data set concerns T. b. brucei strain 427. To be noted: infected mice, 30 mg/kg i.p. once daily up to 4 days; one surviving mouse per group; from ∼10^8.
A short description of a further data set: Clearance (Cli). It counts as in vitro ADME. The settings on record: footnote: Cli is the clearance in vivo.
The mark [3] stands for this setting: Trypanosoma brucei, read-out: T. b. brucei (IC50 μM), medium not stated.
The mark [4] stands for this setting: half-life of the compound, read-out: t1/2.
Setting [5] is: Trypanosoma brucei, read-out: T. b. brucei (IC50 μM) CMM, Creek's minimal medium (CMM).
Where [6] appears, read: Trypanosoma brucei, read-out: T. b. brucei (IC50 μM) HMI-9, HMI-9 medium.
The mark [7] stands for this setting: read-out: T. b. brucei (IC50 μM) CMM, Creek's minimal medium (CMM).
Where [8] appears, read: read-out: T. b. brucei (IC50 μM) HMI-9, HMI-9 medium.

Structures can show the parent of a compound that is named as a salt. Where two headings read alike, the source gives them in different places. A value given as a limit tells only on which side of the number the result lay.

Procedure for T. b. brucei strain 427: Twenty-four hours postinfection mice were injected intraperitoneally with 30 mg/kg daily of test compound (repeated for four consecutive days), prepared in a 10% v/v DMSO, 40% v/v PEG, and 50% v/v water solution. Parasitaemia was monitored daily by tail venipuncture. Infected, untreated mice were used as control.

By IC50 is commonly meant the concentration at which inhibition is half-maximal. With `Nc1nc(N)c(C(C[N+](=O)[O-])c2ccc(F)cc2)c(N)n1` (stereo not shown) [28b], the concentration for half-maximal inhibition (IC50) in the data set with HEK 293T cells (Homo sapiens, HEK-293T) worked out at 39.1 µM; with T. b. brucei (setting [3]), 0.16 µM.
Regarding `Nc1nc(N)c2c(-c3ccccc3)c(-c3ccc(F)cc3)[nH]c2n1` [35b, 6-(4-Fluorophenyl)-5-phenyl-7H-pyrrolo[2,3-d]pyrimidine-2,4-diamine], the IC50 is 49.2 µM in the data set on HEK 293T cells (Homo sapiens, HEK-293T); 49.2 µM with HEK 293T cells; 0.08 µM with T. b. brucei (setting [5]); 0.32 µM in the data set with T. b. brucei (setting [6]); 0.082 µM in the data set with T. b. brucei (setting [7]); 0.321 µM in the data set on T. b. brucei (setting [8]). Besides, the fraction unbound in data set [1] came out at 0.011. Further, the half-life is more than 8.33 h in data set [2] (setting [4]) and more than 8 h in data set [2] (metabolic stability in microsomal assay, read-out: t1/2 in microsomal assay). In the data set on T. b. brucei strain 427, the reduction of parasitaemia entry was “below detectable limits”. Besides, the Cli in the data set “Clearance (Cli)” is 1.90 mL/min/g.
As for `N=C(N)c1ccc(/N=N/Nc2ccc(C(=N)N)cc2)cc1` [diminazene, reference compound], the IC50 stood at 0.007 µM in the data set with T. b. brucei (setting [5]) and 0.027 µM with T. b. brucei (setting [6]).
Take `N#Cc1c[nH]c2nc(N)nc(N)c12` [compound 4, 2,4-diamino-7H-pyrrolo[2,3-d]pyrimidine-5-carbonitrile]: the IC50 with T. b. brucei (setting [3]) stood at 2440 µM.
In the case of `Nc1nc(N)c(C(C[N+](=O)[O-])c2ccc(F)cc2)c(NC2CCCCC2)n1` (stereo not shown) [30b], the half-inhibitory concentration (IC50) in the data set on HEK 293T cells (Homo sapiens, HEK-293T) was found to be 32.6 µM; with T. b. brucei (setting [5]), 0.8 µM; in the data set on T. b. brucei (setting [6]), 0.54 µM.
Take `CC(C)COc1nc(N)nc(N)c1C(C[N+](=O)[O-])c1ccc(F)cc1` (stereo not shown) [30a]: the IC50 with T. b. brucei (setting [5]) amounted to 10.6 µM; in the data set with T. b. brucei (setting [6]), 13.9 µM.
Compound `Nc1nc(N)c2c(-c3ccc(F)cc3)c[nH]c2n1` [29b] showed a Cli in “Clearance (Cli)” of 1.7 mL/min/g.
With `Nc1nc2[nH]cc(CCc3ccccc3)c2c(=O)[nH]1` [27d], the IC50 with T. b. brucei (setting [3]) turned out to be 7620 µM.
As for `Nc1nc2[nH]c(-c3ccc(F)cc3)c(-c3cccc(Cl)c3)c2c(=O)[nH]1` [34l], in “Clearance (Cli)”, the Cli was less than 0.5 mL/min/g.
Turning to `Nc1nc(N)c2c(-c3ccccc3)c(-c3ccccc3)[nH]c2n1` [35a, 5,6-Diphenyl-7H-pyrrolo[2,3-d]pyrimidine-2,4-diamine], the half-inhibitory concentration (IC50) in the data set on HEK 293T cells (Homo sapiens, HEK-293T) was 62.9 µM; in the data set with HEK 293T cells, 62.9 µM; with T. b. brucei (setting [5]), 0.58 µM; in the data set on T. b. brucei (setting [6]), 2.25 µM; with T. b. brucei (setting [7]), 0.583 µM; in the data set on T. b. brucei (setting [8]), 2.25 µM. Moreover, the fraction unbound in data set [1] stood at 0.035. The half-life in data set [2] (setting [4]) was approximately 1.67 h. This compound registered a Cli in the data set “Clearance (Cli)” of 5.26 mL/min/g.
With `Cc1ccc(C(C[N+](=O)[O-])c2c(N)nc(N)[nH]c2=O)cc1` (stereo not shown) [26a], the IC50 in the data set on HEK 293T cells (Homo sapiens, HEK-293T) was 73.4 µM; in the data set on T. b. brucei (setting [3]), 2.04 µM.
With `CN(Cc1cnc2nc(N)nc(N)c2n1)c1ccc(C(=O)N[C@@H](CCC(=O)O)C(=O)O)cc1` [methotrexate, reference compound], the IC50 in the data set with T. b. brucei (setting [5]) was determined as 0.011 µM; with T. b. brucei (setting [6]), 3.66 µM.
The like results for `CC(C)Oc1nc(N)nc(N)c1C(C[N+](=O)[O-])c1ccc(F)cc1` (stereo not shown) [30c, 5-[1-(4-Fluorophenyl)-2-nitroethyl]-6-isopropyloxy-2,4-pyrimidinediamine] were, in that order, 8.48 µM and 15.9 µM.
Turning to `N#Cc1c(-c2cccc(C=O)c2)[nH]c2nc(N)nc(N)c12` [6a], in the data set with T. b. brucei (setting [3]), the IC50 is 6.03 µM.
Same read-out and setting: under `Nc1nc(N)c(C(CCc2ccccc2)C[N+](=O)[O-])c(N)n1` (stereo not shown) [28d] stands 8.82 µM.
With `Nc1nc(N)c(C(C[N+](=O)[O-])c2ccccc2)c(N)n1` (stereo not shown) [28c, 5-(2-Nitro-1-phenylethyl)-2,4,6-pyrimidinetriamine], the 50% inhibitory concentration (IC50) with HEK 293T cells (Homo sapiens, HEK-293T) was 35 µM; with T. b. brucei (setting [3]) it was 0.13 µM.
As for `Nc1nc2[nH]c(-c3ccc(F)cc3)c(-c3ccccc3)c2c(=O)[nH]1` [34c, 2-Amino-6-(4-fluorophenyl)-5-phenyl-3,7-dihydro-4H-pyrrolo[2,3-d]pyrimidin-4-one], the IC50 in the data set on HEK 293T cells (Homo sapiens, HEK-293T) was more than 200 µM; with T. b. brucei (setting [5]), 0.61 µM; with T. b. brucei (setting [6]), 0.74 µM; in the data set with T. b. brucei (setting [7]), 0.614 µM; with T. b. brucei (setting [8]) it was 0.738 µM. The fraction unbound in data set [1] was found to be 0.017. The Cli in “Clearance (Cli)” is 0.17 mL/min/g.
Consider `N#Cc1c[nH]c2nc(N)nc(N3CCSCC3)c12` [12d], for which the 50% inhibitory concentration (IC50) with T. b. brucei (setting [3]) turned out to be 14.3 µM.
On to `Nc1nc(N)c(C(C[N+](=O)[O-])c2ccccc2)c(=O)[nH]1` (stereo not shown) [26c, 2,6-diamino-5-(2-nitro-1-phenylethyl)-4(3H)-pyrimidinone], for which the IC50 is 134 µM in the data set with HEK 293T cells (Homo sapiens, HEK-293T) and 1.02 µM in the data set with T. b. brucei (setting [3]).
On to `Nc1nc2[nH]c(-c3ccc(CCCN4CCOCC4)cc3)c(-c3ccccc3)c2c(=O)[nH]1` [compound 38, 2-Amino-6-{4-[3-(4-morpholinyl)propyl]phenyl}-5-phenyl-3,7-dihydro-4H-pyrrolo[2,3-d]pyrimidin-4-one trifluoroacetate], for which the IC50 was 20.1 µM in the data set with T. b. brucei (setting [5]) and 38.1 µM in the data set on T. b. brucei (setting [6]).
Take `Nc1nc(N2CCCC2)c2c(C#Cc3ccccc3)c[nH]c2n1` [compound 20, 5-(Phenylethynyl)-4-(1-pyrrolidinyl)-7H-pyrrolo[2,3-d]pyrimidin-2-amine]: the Cli in the data set “Clearance (Cli)” stood at 5.6 mL/min/g.
For the compound `Nc1nc2[nH]c(-c3ccccc3)c(-c3ccccc3)c2c(=O)[nH]1` [34a, 2-Amino-5,6-diphenyl-3,7-dihydro-4H-pyrrolo[2,3-d]pyrimidin-4-one], the fraction unbound in data set [1] was 0.029. The half-life in data set [2] (setting [4]) is approximately 2.17 h. Further, the half-inhibitory concentration (IC50) in the data set with T. b. brucei (setting [5]) was determined as 0.41 µM; in the data set with T. b. brucei (setting [6]), 0.64 µM; with T. b. brucei (setting [7]), 0.407 µM.
Regarding `Nc1nc(N2CCSCC2)c2cc[nH]c2n1` [8b], the IC50 in the data set on T. b. brucei (setting [3]) was determined as 80.1 µM.
In the case of `Nc1nc(N)c(C(C[N+](=O)[O-])c2ccc(F)cc2)c(=O)[nH]1` (stereo not shown) [26b], the IC50 in the data set with HEK 293T cells (Homo sapiens, HEK-293T) was found to be 150 µM; with T. b. brucei (setting [3]), 1.86 µM.
`Nc1nc2[nH]c(-c3ccccc3)c(CCc3ccccc3)c2c(=O)[nH]1` [34i] registered a Cli in “Clearance (Cli)” of 2.5 mL/min/g.
As for `Cc1ccc(C(C[N+](=O)[O-])c2c(N)nc(N)nc2N)cc1` (stereo not shown) [28a], the IC50 with HEK 293T cells (Homo sapiens, HEK-293T) came out at 32.5 µM; with T. b. brucei (setting [3]), 0.47 µM.

These data come from article PMC4136963, “Structure-Based Design and Synthesis of Antiparasitic Pyrrolopyrimidines Targeting Pteridine Reductase 1” (Journal of Medicinal Chemistry, 2014).
